# Measurements published in US20230391764A1, “BENZOTHIAZOLYL BICYCLO[1.1.1]PENTANE DERIVATIVES FOR THE TREATMENT AND PROPHYLAXIS OF HEPATITIS B VIRUS INFECTION” (Hoffmann-La Roche Inc., priority 2021, published 2023).
# Key:
# Type in all cases: cell-based
# HBeAg = experiment: PHH HBV natural infection assay, HBeAg (alphalisa); settings: Hepatitis B virus, 72 h, read-out: HBeAg IC50
# Procedure: (§1) Detailed procedures regarding primary human hepatocyte (PHH) HBV natural infection assay are described as below. One tube of frozen PHH (10 million cells) is thawed in 37° C. water bath and then transferred to 20 mL of PHH thawing medium (Sigma, InVitroGRO HT Medium, Cat. S03319) with gently mixing. The cells were then centrifuged at […] for 5 min, the supernatant was discarded and the tube was refilled with 25 mL of PHH plating medium (Sigma, InVitroGRO CP Medium, Cat. S03317). The tube was shaken very gently to re-suspend all cells, and then 50 μl of cells were transferred to each well 384-well collagen I coated plate with appropriate liquid handling equipment, e.g. Integra VIAFLO384 or Agilent Bravo. The cells were then cultured for 24 hours in a cell incubator. For HBV infection, after PHH attachment on the culture plate, the plating medium was removed and replenished with PHH culture medium containing HBV virus. The PHH culture medium was prepared with Dulbecco's Modified Eagle Medium (DMEM)/F12 (1:1 in volume ratio) containing 10% fetal bovine serum (Gibco, Cat.10099141), 5 ng/mL human epidermal growth factor (Gibco, Cat.PHG0311L), 20 ng/mL dexamethasone (Sigma, Cat.D4902-100 mg), 250 ng/mL human recombinant insulin (Gibco, Cat.41400045) and 100 U/mL penicillin. HBV virus at 200 genome equivalent (GE) per cell with 4% PEG8000 (Sigma, Cat.P1458) containing culture medium were added to the PHH culture medium for infection. The cells were then cultured for 24 hours in cell incubator. Then the cell culture supernatant was removed. The HBV-infected PHH were cultured with sandwich culture method with PHH culture medium containing 1% DMSO and 0.25 mg/mL matrix gel for 72 hours. The supernatant was then refreshed with PHH culture medium containing different concentrations of testing compounds for two times with 72-hour interval. At the end of treatment, the supernatant was collected for viral markers measurements, including HBsAg, HBeAg, HBV DNA and cytotoxicity. HBsAg and HBeAg were detected using alphalisa method using their specific antibodies. For HBV DNA detection, HBV DNA Quantitative Fluorescence Diagnostic Kit (Sansure Biotech Inc.) was used following the manufacture's protocol. Cytotoxicity was determined using Cell Counting Kit-8 (CCK8, Dojindo Molecular Technologies, Inc.).
# (§2) The compounds of the present invention were tested for their capacity to inhibit HBsAg and HBeAg as described herein.
# [1] = PHH natural infection assay, cytotoxicity (Cell Counting Kit-8); settings: human; HBV-infected PHH, CCK8
# Procedure: as §1
# HBsAg = experiment: PHH HBV natural infection assay, HBsAg (alphalisa); settings: Hepatitis B virus, 72 h, read-out: HBsAg IC50
# Procedure: as §1, §2
Compound,IC50 (HBeAg) [nM],CC50 at 144 h [1] [nM],IC50 (HBsAg) [nM]
"C[C@H](c1ccc(C(=O)NC23CC(c4nc5ccc(Cl)cc5s4)(C2)C3)o1)S(C)(=O)=O (single isomer, unassigned) [Example 56a]",230,15000,230
"C[C@@H](c1ccc(C(=O)NC23CC(c4nc5ccc(Cl)cc5s4)(C2)C3)o1)S(C)(=O)=O (single isomer, unassigned) [Example 56b]",160,14700,190
"CS(=O)(=O)C1(c2ccc(C(=O)NC34CC(c5nc6ccc(Br)cc6s5)(C3)C4)o2)CC1 [Example 2, N-[1-(6-bromo-1,3-benzothiazol-2-yl)-3-bicyclo[1.1.1]pentanyl]-5-(1-methylsulfonylcyclopropyl)furan-2-carboxamide]",110,5850,170
CS(=O)(=O)C1(c2nsc(C(=O)NC34CC(c5nc6ccc(Br)cc6s5)(C3)C4)n2)CC1 [Example 4],50,4220,70
"CS(=O)(=O)C1(c2ccc(C(=O)NC34CC(c5nc6cc(Br)ccc6s5)(C3)C4)o2)CC1 [Example 6, N-(3-(5-bromobenzo[d]thiazol-2-yl)bicyclo[1.1.1]pentan-1-yl)-5-(1-(methylsulfonyl)cyclopropyl)furan-2-carboxamide]",100,6030,170
CS(=O)(=O)C1(c2nsc(C(=O)NC34CC(c5nc6cc(Br)ccc6s5)(C3)C4)n2)CC1 [Example 7],60,8520,100
CS(=O)(=O)C1(c2ccc(C(=O)NC34CC(c5nc6ccc(C#N)cc6s5)(C3)C4)o2)CC1 [Example 8],720,12500,790
C#Cc1ccc2nc(C34CC(NC(=O)c5ccc(C6(S(C)(=O)=O)CC6)o5)(C3)C4)sc2c1 [Example 10],270,11000,370
CS(=O)(=O)C1(c2ccc(C(=O)NC34CC(c5nc6ccc(F)cc6s5)(C3)C4)o2)CC1 [Example 11],360,16300,480
CS(=O)(=O)Cc1ccc(C(=O)NC23CC(c4nc5ccc(Cl)cc5s4)(C2)C3)o1 [Example 13],800,> 50000,1020
CCC(c1ccc(C(=O)NC23CC(c4nc5ccc(Cl)cc5s4)(C2)C3)o1)S(C)(=O)=O (stereo not drawn) [Example 14],150,> 10000,200
CS(=O)(=O)C1(c2ccc(C(=O)NC34CC(c5nc6ccc(Cl)cc6s5)(C3)C4)o2)CC1 [Example 15],160,6330,210
CC(C)(c1ccc(C(=O)NC23CC(c4nc5ccc(Cl)cc5s4)(C2)C3)o1)S(C)(=O)=O [Example 16],240,3760,290
"CC(c1ccc(C(=O)NC23CC(c4nc5ccc(Cl)cc5s4)(C2)C3)o1)S(C)(=O)=O (stereo not drawn) [Example 17, N-[3-(6-chloro-1,3-benzothiazol-2-yl)-1-bicyclo[1.1.1]pentanyl]-5-(1-methylsulfonylethyl)furan-2-carboxamide]",150,14600,170
CC(C)(c1ncc(C(=O)NC23CC(c4nc5ccc(Cl)cc5s4)(C2)C3)o1)S(C)(=O)=O [Example 22],470,7550,720
CC(C)(c1cc(C(=O)NC23CC(c4nc5ccc(Cl)cc5s4)(C2)C3)sn1)S(C)(=O)=O [Example 27],650,8550,840
CC(c1nsc(C(=O)NC23CC(c4nc5ccc(Cl)cc5s4)(C2)C3)n1)S(C)(=O)=O (stereo not drawn) [Example 31],630,5710,740

Compound,IC50 (HBeAg) [nM],CC50 at 144 h [1] [nM],IC50 (HBsAg) [nM]
CC(C)(c1nsc(C(=O)NC23CC(c4nc5ccc(Cl)cc5s4)(C2)C3)n1)S(C)(=O)=O [Example 32],330,2950,430
CC(n1ccc(C(=O)NC23CC(c4nc5ccc(Cl)cc5s4)(C2)C3)n1)S(C)(=O)=O (stereo not drawn) [Example 34],390,7010,440
CS(=O)(=O)C(Br)c1ccc(C(=O)NC23CC(c4nc5cc(Cl)ccc5s4)(C2)C3)o1 (stereo not drawn) [Example 43],480,22800,500
CCC(c1ccc(C(=O)NC23CC(c4nc5cc(Cl)ccc5s4)(C2)C3)o1)S(C)(=O)=O (stereo not drawn) [Example 44],160,20400,230
CC(C)(c1ccc(C(=O)NC23CC(c4nc5cc(Cl)ccc5s4)(C2)C3)o1)S(C)(=O)=O [Example 45],250,9940,390
CC(c1ccc(C(=O)NC23CC(c4nc5cc(Cl)ccc5s4)(C2)C3)o1)S(C)(=O)=O (stereo not drawn) [Example 46],230,15300,370
CS(=O)(=O)C1(c2ccc(C(=O)NC34CC(c5nc6cc(Cl)ccc6s5)(C3)C4)o2)CC1 [Example 47],220,6620,320
C[S+]([O-])C(C)(C)c1ccc(C(=O)NC23CC(c4nc5cc(Cl)ccc5s4)(C2)C3)o1 (stereo not drawn) [Example 50],80,1640,100
"CC(c1ccn(C(=O)NC23CC(c4nc5ccc(Cl)cc5s4)(C2)C3)n1)S(C)(=O)=O (stereo not drawn) [Example 58, N-[3-(6-chloro-1,3-benzothiazol-2-yl)-1-bicyclo[1.1.1]pentanyl]-3-(1-methylsulfonylethyl)pyrazole-1-carboxamide]",240,6060,340
CC(C)(c1ccn(C(=O)NC23CC(c4nc5ccc(Cl)cc5s4)(C2)C3)n1)S(C)(=O)=O [Example 60],90,4820,122
CC(C)(c1ccn(C(=O)NC23CC(c4nc5cc(Br)ccc5s4)(C2)C3)n1)S(C)(=O)=O [Example 61],80,2090,110
CS(=O)(=O)C1(c2ccn(C(=O)NC34CC(c5nc6cc(Br)ccc6s5)(C3)C4)n2)CC1 [Example 62],40,3830,70
CS(=O)(=O)C1(c2ccn(C(=O)NC34CC(c5nc6ccc(Cl)cc6s5)(C3)C4)n2)CC1 [Example 63],80,5060,110
"CS(=O)(=O)C1(c2ncc(C(=O)NC34CC(c5nc6ccc(Cl)cc6s5)(C3)C4)o2)CC1 [Example 67, N-[3-(6-chloro-1,3-benzothiazol-2-yl)-1-bicyclo[1.1.1]pentanyl]-2-(1-methylsulfonylcyclopropyl)oxazole-5-carboxamide]",320,7250,400
"CS(=O)(=O)C(Cl)c1ccc(C(=O)NC23CC(c4nc5cc(Cl)ccc5s4)(C2)C3)o1 (stereo not drawn) [Example 75, 5-(chloro(methylsulfonyl)methyl)-N-(3-(5-chlorobenzo[d]thiazol-2-yl)bicyclo[1.1.1]pentan-1-yl)furan-2-carboxamide]",430,16800,550
"CS(=O)(=O)C1(c2noc(C(=O)NC34CC(c5nc6ccc(Cl)cc6s5)(C3)C4)n2)CC1 [Example 76, N-[3-(6-chloro-1,3-benzothiazol-2-yl)-1-bicyclo[1.1.1]pentanyl]-3-(1-methylsulfonylcyclopropyl)-1,2,4-oxadiazole-5-carboxamide]",400,4270,700
"CS(=O)(=O)C1(c2nc(C(=O)NC34CC(c5nc6ccc(Br)cc6s5)(C3)C4)no2)CC1 [Example 77, N-[3-(6-bromo-1,3-benzothiazol-2-yl)-1-bicyclo[1.1.1]pentanyl]-5-(1-methylsulfonylcyclopropyl)-1,2,4-oxadiazole-3-carboxamide]",620,6490,860
